Experimental findings from patent publication US10370436B2, “Anti-pseudomonas Psl binding molecules and uses thereof” (priority 2011, dated 2019) are described below.

In the data set the test system is P. aeruginosa strains PAO1, 33356, 6294, 6077. As to the kind of experiment: P. aeruginosa acute pneumonia model, survival. In kind it is in vivo, BALB/c mice. How it is done:
FIG. 6 (A-G): Survival rates for animals treated with anti-Psl monoclonal antibodies Cam-003 or WapR-004 in a P. aeruginosa acute pneumonia model. (A-D) Animals were treated with Cam-003 at 45, 15, and 5 mg/kg and R347 at 45 mg/kg or PBS 24 hours prior to intranasal infection with (A) PAO1 (1.6×10^7 CFU), (B) 33356 (3×10^7 CFU), (C) 6294 (7×10^6 CFU), (D) 6077 (1×10^6 CFU). (E-F) Animals were treated with WapR-004 at 5 and 1 mg/kg as indicated followed by infection with 6077 at (E) (8×10^5 CFU), or (F) (6×10^5 CFU). Animals were carefully monitored for survival up to 72 hours (A-D) or for 120 hours (E-F). (G) Animals were treated with Cam-003 at 15 mg/kg or 5 mg/kg, or R347 at 15 mg/kg 24 hours prior to intranasal infection with PAO1 (4.4×10^7 CFU), and Cam-003 at 15 mg/kg 24 hours prior to intranasal infection with PAO1ΔpslA (3×10^7 CFU). In all experiments, PBS and R347 served as negative controls. Results are represented as Kaplan-Meier survival curves; differences in survival were calculated by the Log-rank test for Cam-003 vs. R347. (A) Cam-003 (45 mg/kg—P<0.0001; 15 mg/kg—P=0.0003; 5 mg/kg—P=0.0033). (B) Cam-003 (45 mg/kg—P=0.0012; 15 mg/kg—P=0.0012; 5 mg/kg—P=0.0373). (C) Cam-003 (45 mg/kg—P=0.0007; 15 mg/kg—P=0.0019; 5 mg/kg—P=0.0212). (D) Cam-003 (45 mg/kg—P<0.0001; 15 mg/kg—P<0.0001; 5 mg/kg—P=0.0001). Results are representative of at least two independent experiments. (E) [Cam-003 (5 mg/kg) vs. R347 (5 mg/kg): P=0.02; Cam-003 (1 mg/kg) vs. R347 (5 mg/kg): P=0.4848; WapR-004 (5 mg/kg) vs. R347 (5 mg/kg): P<0.0001; WapR-004 (1 mg/kg) vs. R347 (5 mg/kg): P=0.0886; WapR-004 (5 mg/kg) vs. Cam-003 (5 mg/kg): P=0.0017; WapR-004 (1 mg/kg) vs. Cam-003 (1 mg/kg): P=0.2468; R347 (5 mg/kg) vs. PBS: P=0.6676] (F) [Cam-003 (5 mg/kg) vs. R347 (5 mg/kg): P=0.0004; Cam-003 (1 mg/kg) vs. R347 (5 mg/kg): P<0.0001; WapR-004 (5 mg/kg) vs. R347 (5 mg/kg): P<0.0001; WapR-004 (1 mg/kg) vs. R347 (5 mg/kg): P<0.0001; WapR-004 (5 mg/kg) vs. Cam-003 (5 mg/kg): P=0.0002; WapR-004 (1 mg/kg) vs. Cam-003 (1 mg/kg): P=0.2628; R347 (5 mg/kg) vs. PBS: P=0.6676. (G) Cam-003 (15 mg/kg—P=0.0028; 5 mg/kg—P=0.0028)]. Results are representative of five independent experiments.
Antibodies or PBS were administered 24 hours before infection in each model. P. aeruginosa acute pneumonia, keratitis, and thermal injury infection models were performed as described (DiGiandomenico, A., et al., Proc Natl Acad Sci USA 104, 4624-4629 (2007)), with modifications. In the acute pneumonia model, BALB/c mice (The Jackson Laboratory) were infected with P. aeruginosa strains suspended in a 0.05 ml inoculum. In the thermal injury model, CF-1 mice (Charles River) received a 10% total body surface area burn with a metal brand heated to 92° C. for 10 seconds. Animals were infected subcutaneously with P. aeruginosa strain 6077 at the indicated dose. For organ burden experiments, acute pneumonia was induced in mice followed by harvesting of lungs, spleens, and kidneys 24 hours post-infection for determination of CFU.

Regarding “Cam-003: human IgG1 anti-Psl monoclonal antibody, VH SEQ ID NO: 1 and VL SEQ ID NO: 2”, the survival result reads like this: (Psl mutant strain PAO1ΔpslA, FIG. 6G) “Increased survival was not observed”; (strain 6077, 5 mg/kg, FIG. 6D) 90%; (strain 33356, 5 mg/kg, FIG. 6B) 80%; (strain PAO1, at 120 hours, FIG. 6G) 100%; (strains PAO1 and 6294, 45, 15, 5 mg/kg 24 hours prior to intranasal infection, FIGS. 6A, 6C) “significant concentration-dependent survival”. Besides, where the note is “larger infectious inoculum of 6077 (1.07×10^6), titrated antibody dose, FIG. 9E”, the “activity versus Cam-003-TM” value is reported as “superior to Cam-003-TM”. Also, the protection from challenge result (strains 33356 and 6077, 45 and 15 mg/kg, FIGS. 6B, 6D) is “complete protection”.
